The nature of series [1]: On-DNA RCM (terminal diene to cyclic alkene), catalyst B (Grubbs-III 2,2'-biphenyldiamine derivative, 10 eq), MgCl2 20000 eq, NH4Cl 12000 eq. As to conditions: H2O:EtOH:MeOAc 5:4:1, 0.02 mM, 25.0 °C, 0.5 h.
Series [2] can be described thus: On-DNA RCM, Grubbs III catalyst A (150 eq), MgCl2 8000 eq (Lu et al. conditions, heterogeneous, rerun here). As to conditions: H2O:tBuOH 3:2, 0.09 mM, 25.0 °C, 1.0 h.
A short description of series [3]: On-DNA RCM, Grubbs III catalyst A (10 eq), MgCl2 20000 eq, NH4Cl 12000 eq (Alternative #1). Conditions: H2O:EtOH:MeOAc 5:4:1, 0.02 mM, 25.0 °C, 0.5 h.
A short description of series [4]: On-DNA RCM, Grubbs III catalyst A (10 eq) + 2,2'-biphenyldiamine C (20 eq), MgCl2 20000 eq, NH4Cl 12000 eq (Alternative #2). Conditions: H2O:EtOH:MeOAc 5:4:1, 0.02 mM, 25.0 °C, 0.5 h.
Where [5] appears, read: from C=CCCC[C@](C)(NC(=O)[C@H](CCCNC(=N)N)NC(=O)[C@H](Cc1c[nH]cn1)NC(=O)[C@H](CC(C)C)NC(=O)[C@](C)(CCCC=C)NC(=O)[C@H](CCCCN)NC(=O)[C@H](CCCNC(=N)N)NC(=O)[C@H](CCCNC(=N)N)NC(=O)[C@H](CCCNC(=N)N)NC(=O)[C@H](CCCNC(=N)N)NC(C)=O)C(=O)N[C@@H](CC(C)C)C(=O)N[C@@H](CCC(N)=O)C(=O)N[C@@H](CC(=O)O)C(=O)N[C@@H](CCc1cn(CC(=O)NC)nn1)C(N)=O, 21-membered ring.
[6] abbreviates: from C=CCCCC(=O)NCCCC[C@@H](NC(=O)COCCOCCNC(=O)CCCC=C)C(=O)NC, 26-membered ring.
[7] abbreviates: from C=CCCCC(=O)N(CC=C)CC(=O)NC, 8-membered ring.
The mark [8] stands for this setting: from C=CCCCC(=O)NCCCC[C@H](NC(=O)CCCC=C)C(=O)NC, 17-membered ring.

SMILES strings stand for the structures.

In series [1] (from C=CCCC[C@](C)(NC(=O)[C@H](CCCNC(=N)N)NC(=O)[C@H](Cc1c[nH]cn1)NC(=O)[C@H](CC(C)C)NC(=O)[C@](C)(CCCC=C)NC(=O)[C@H](CCCCN)NC(=O)[C@H](CCCNC(=N)N)NC(=O)[C@H](CCCNC(=N)N)NC(=O)[C@H](CCCNC(=N)N)NC(=O)[C@H](CCCNC(=N)N)NC(C)=O)C(=O)N[C@@H](CC(C)C)C(=O)N[C@@H](CCC(N)=O)C(=O)N[C@@H](CC(=O)O)C(=O)N[C@@H](CCc1cn(CCOCCOCCOCCOCCC(=O)NC)nn1)C(N)=O, 21-membered ring), `CNC(=O)CCOCCOCCOCCOCCn1cc(CC[C@H](NC(=O)[C@H](CC(=O)O)NC(=O)[C@H](CCC(N)=O)NC(=O)[C@H](CC(C)C)NC(=O)[C@]2(C)CCCC=CCCC[C@](C)(NC(=O)[C@H](CCCCN)NC(=O)[C@H](CCCNC(=N)N)NC(=O)[C@H](CCCNC(=N)N)NC(=O)[C@H](CCCNC(=N)N)NC(=O)[C@H](CCCNC(=N)N)NC(C)=O)C(=O)N[C@@H](CC(C)C)C(=O)N[C@@H](Cc3c[nH]cn3)C(=O)N[C@@H](CCCNC(=N)N)C(=O)N2)C(N)=O)nn1` displayed a ring closure, conversion by HPLC (% conversion (LC/MS deconvolution)) of 65.

Consider `CNC(=O)Cn1cc(CC[C@H](NC(=O)[C@H](CC(=O)O)NC(=O)[C@H](CCC(N)=O)NC(=O)[C@H](CC(C)C)NC(=O)[C@]2(C)CCCC=CCCC[C@](C)(NC(=O)[C@H](CCCCN)NC(=O)[C@H](CCCNC(=N)N)NC(=O)[C@H](CCCNC(=N)N)NC(=O)[C@H](CCCNC(=N)N)NC(=O)[C@H](CCCNC(=N)N)NC(C)=O)C(=O)N[C@@H](CC(C)C)C(=O)N[C@@H](Cc3c[nH]cn3)C(=O)N[C@@H](CCCNC(=N)N)C(=O)N2)C(N)=O)nn1`, for which the values for the ring closure, conversion by HPLC (% conversion (LC/MS deconvolution)) in series [2] (setting [5]) and in series [1] (setting [5]) were 22 and 52, respectively.

`CNC(=O)[C@@H]1CCCCNC(=O)CCCC=CCC(=O)N[C@H](c2cccnc2)CC(=O)N1` yielded a ring closure, conversion by HPLC (% conversion (LC/MS deconvolution)) in series [2] (from C=CCCCC(=O)NCCCC[C@H](NC(=O)C[C@H](NC(=O)CC=C)c1cccnc1)C(=O)NC, 19-membered ring) of 0.

As to `CNC(=O)[C@H]1CCCCNC(=O)CCCC=CCCCC(=O)NCCOCCOCC(=O)N1`, the ring closure, conversion by HPLC (% conversion (LC/MS deconvolution)) in series [3] (setting [6]) is 58; in series [2] (setting [6]) it was 23; in series [4] (setting [6]), 61; in series [1] (setting [6]), 70.

In the case of `CNC(=O)CN1CC=CCCCC1=O` [5-hexenoyl-(N-allyl)Gly-NH-DNA], the ring closure, conversion by HPLC (% conversion (LC/MS deconvolution)) is 33 in series [3] (setting [7]), 65 in series [2] (setting [7]), 73 in series [4] (setting [7]) and 62 in series [1] (setting [7]).

The compound `CNC(=O)[C@@H]1CCCCNC(=O)CCCC=CCCCC(=O)N1` [5-hexenoyl-Lys(5-hexenoyl)-NH-DNA (56-bp dsDNA)] had a ring closure, conversion by HPLC (% conversion (LC/MS deconvolution)) in series [1] (setting [8]) of 69.

`CNC(=O)[C@@H]1CCCCNC(=O)CCCC=CCCCC(=O)N1` [5-hexenoyl-Lys(5-hexenoyl)-NH-DNA]: the ring closure, conversion by HPLC (% conversion (LC/MS deconvolution)) in series [3] (setting [8]) worked out at 72; in series [2] (setting [8]), 70; in series [4] (setting [8]) it was 75; in series [1] (setting [8]), 78.
